This is an account of results in ChEMBL document CHEMBL3044753, “Polyamines May Modulate Both G Protein-Coupled Receptors and G Proteins” (Med Chem Res, 2004).

Structures are written as SMILES.

Holding throughout (type): functional, tissue-based
The subject of test [1] is Left cardiac atrium. Put plainly: Negative ionotropic activity in electrically-paced Cavia porcellus (guinea pig) left atrium measured after 60 min by isometric transducer analysis in absence of benextramine/4-DAMP mustard. The note with it: 1 h.
Test [2] deals with Right cardiac atrium. The test is described as follows: Negative […] activity in electrically-paced Cavia porcellus (guinea pig) right atrium assessed as effect on force measured after 60 min by isometric transducer analysis in absence of benextramine/4-DAMP mustard. Conditions: 1 h.
Test [3] deals with Right cardiac atrium. Put plainly: Negative […] activity in electrically-paced Cavia porcellus (guinea pig) right atrium assessed as effect on force measured after 60 min by isometric transducer analysis in presence of benextramine/4-DAMP mustard. Conditions: 1 h.
The subject of test [4] is Left cardiac atrium. Put plainly: Negative ionotropic activity in electrically-paced Cavia porcellus (guinea pig) left atrium measured after 60 min by isometric transducer analysis in presence of benextramine/4-DAMP mustard. Conditions: 1 h.
Test [5] deals with Right cardiac atrium. Put plainly: Negative ionotropic activity in electrically-paced Cavia porcellus (guinea pig) right atrium assessed as effect on force measured immediately by isometric transducer analysis in absence of benzalkonium/prazosin.
Test [6] relates to Left cardiac atrium. Put plainly: Negative ionotropic activity in electrically-paced Cavia porcellus (guinea pig) left atrium measured immediately by isometric transducer analysis in absence of benzalkonium/prazosin.

With `CCCCCCCCCCCCNC(=O)[C@@H](N)CCCCN` [N-DODECYL LYSINE AMIDE], the EC50 was 0.417 nM in the test with Left cardiac atrium [1], 0.417 nM in the test on Right cardiac atrium [2], 0.282 nM in the test on Right cardiac atrium [3] and 0.363 nM in the test on Left cardiac atrium [4].

Take `C#CCOC(=O)C1=CCCN(C)C1` [ARECAIDINE PROPARGYL ESTER]: the EC50 is 1.7 nM in the test on Right cardiac atrium [5] and 4.57 nM in the test on Left cardiac atrium [6].
